# From PubChem BioAssay AID588654 (The Scripps Research Institute Molecular Screening Center, 2011)
# The source made the active and inactive calls.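 How the source made its calls: active means EGF receptor protein level falling or rising by at least 30% versus DMSO-treated cells; inactive means the rest.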
# Target: Epidermal growth factor receptor (Homo sapiens) (UniProt P00533)
# Experiment: change in total EGFR protein, up or down, late-stage follow-up, counter-screen for KLF5 inhibitor project, HT29 cells, chemiluminescent western blot (AID 588654)
# Conditions: 24 h, at 10 µM, stronger effect = higher value
# Epidermal growth factor receptor (Homo sapiens), sequence (P00533 whole entry, looked up): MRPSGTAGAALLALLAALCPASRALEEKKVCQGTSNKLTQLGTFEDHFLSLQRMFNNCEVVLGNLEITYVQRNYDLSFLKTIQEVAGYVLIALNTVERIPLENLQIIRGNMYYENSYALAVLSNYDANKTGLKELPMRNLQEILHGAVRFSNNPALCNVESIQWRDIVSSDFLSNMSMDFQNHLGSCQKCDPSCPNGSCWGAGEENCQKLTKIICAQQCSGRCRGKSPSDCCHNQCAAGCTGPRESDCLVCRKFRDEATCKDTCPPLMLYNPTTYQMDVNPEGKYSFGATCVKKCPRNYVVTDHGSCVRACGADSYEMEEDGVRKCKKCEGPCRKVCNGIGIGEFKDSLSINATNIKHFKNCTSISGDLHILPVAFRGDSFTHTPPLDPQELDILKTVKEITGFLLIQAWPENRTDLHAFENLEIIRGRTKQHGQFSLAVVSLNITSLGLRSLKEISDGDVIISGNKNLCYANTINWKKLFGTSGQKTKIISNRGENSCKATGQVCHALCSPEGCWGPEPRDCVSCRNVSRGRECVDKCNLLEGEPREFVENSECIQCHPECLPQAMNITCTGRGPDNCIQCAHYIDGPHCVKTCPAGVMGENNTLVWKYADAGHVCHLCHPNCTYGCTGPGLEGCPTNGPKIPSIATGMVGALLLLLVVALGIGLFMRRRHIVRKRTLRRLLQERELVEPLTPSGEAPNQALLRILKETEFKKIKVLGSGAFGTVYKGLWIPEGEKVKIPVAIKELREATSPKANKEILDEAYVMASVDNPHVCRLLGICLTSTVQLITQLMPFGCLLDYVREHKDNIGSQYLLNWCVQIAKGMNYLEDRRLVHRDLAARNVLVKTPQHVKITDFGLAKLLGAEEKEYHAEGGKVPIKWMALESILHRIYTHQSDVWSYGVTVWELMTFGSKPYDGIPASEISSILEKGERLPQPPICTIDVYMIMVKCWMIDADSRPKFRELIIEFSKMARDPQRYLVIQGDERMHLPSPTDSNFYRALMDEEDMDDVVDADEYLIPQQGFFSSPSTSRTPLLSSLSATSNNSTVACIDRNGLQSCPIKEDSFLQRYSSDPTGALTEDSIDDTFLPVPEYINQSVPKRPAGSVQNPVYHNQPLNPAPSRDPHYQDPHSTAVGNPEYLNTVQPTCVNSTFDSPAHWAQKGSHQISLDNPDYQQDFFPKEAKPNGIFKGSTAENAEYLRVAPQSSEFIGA
row,inhibition,SMILES
1,-0.393% (inactive),CN(C(=O)CNC(=O)/C=C/c1cccc(Cl)c1)C1CCS(=O)(=O)C1 (stereo not drawn)
2,7.26% (inactive),CN(C(=O)CNC(=O)/C=C/c1cccc(Cl)c1)C1CCS(=O)(=O)CC1
3,16.4% (inactive),CN(C(=O)COC(=O)/C=C/c1cccc([N+](=O)[O-])c1)C1CCS(=O)(=O)C1 (stereo not drawn)
